Patent US20240246981A1, “[…] DERIVATIVES AS INHIBITORS OF […]-PEPTIDE CYCLOTRANSFERASE AND […]-PEPTIDE CYCLOTRANSFERASE LIKE PROTEIN” (Boehringer Ingelheim International GmbH, priority 2022, published 2024)

Legend:
[1] = Assay C: permeability in CACO-2 cells; format: in vitro ADME; settings: human, pH 7.2, compounds of the invention, Table 7
Description: Compounds are dissolved in appropriate solvent (like DMSO, 1-20 mM stock solutions). […] The transport solution (TL) is applied to the apical or basolateral donor side for measuring A-B or B-A permeability (3 filter replicates), respectively. Samples are collected at the start and end of experiment from the donor and at various time intervals for up to 2 hours also from the receiver side for concentration measurement by HPLC-MS/MS or scintillation counting. Sampled receiver volumes are replaced with fresh receiver solution.

[2] = target: QPCT (Homo sapiens (Human), UniProt Q16769); assay: Assay A: biochemical QPCT activity assay (MALDI-TOF MS); settings: compounds of the invention, Table 2; read-out: Inhibition of QPCT: IC50
Description: (§1) QPCT or QPCTL dependent conversion of N-terminal glutamine to pyroglutamate of CD47 was monitored via MALDI-TOF MS. Test compounds were dissolved in 100% DMSO and serially diluted into clear 1,536-well microtiter plates. Enzymatic reactions were set up in assay buffer containing 20 mM Tris pH 7.5, 0.1 mM TCEP, 0.01% BSA, and 0.001% Tween20. […] The plates were incubated for 10 min in a humidified incubator at 24° C. Subsequently, 2.5 μL of CD47 peptide substrate surrogate (^19[…]^33) was added to each well (final concentration: 10 μM for QPCTL/20 μM for QPCT). The plates were mixed for 30 sec at 1,000 rpm and subsequently incubated for 40 min in a humidified incubator at 24° C. […] The plates were sealed with an adhesive foil, mixed for 30 s at 1,000 rpm and stored at room temperature until preparation of the MALDI target plates. […] QPCT or QPCTL activity was monitored by calculating the ratio between product and internal standard signals followed by normalization to high (100% activity) and low (0% activity) controls. Determination of compound potencies was obtained by fitting the dose-response data to a four-parameter logistical equation.

[3] = test system: SIRPα signalling induced by Raji cells; assay: Assay B: SIRPα signalling assay using Raji cells; format: cell-based, human; settings: Homo sapiens, compounds of the invention, Table 4, read-out: Inhibition of SIRα signalling induced by Raji cells: IC50
Description: Bioassay reagent 1 of the PathHunter Bioassay detection kit (DiscoverX 93-0001) was added to each well of the plate using a multichannel pipette followed by a 15 min incubation at room temperature. Afterwards bioassay reagent 2 was added followed by 60 min incubation at room temperature (incubation in the dark).
(§2) The analysis of the data was performed using the luminescence signal generated by beta-galactosidase in the PathHunter reporter cell line. The luminescence measurement was done using a Pherastar Multi-Mode Reader.

[4] = target: QPCTL (Homo sapiens (Human), UniProt Q9NXS2); assay: Assay A: biochemical QPCTL activity assay (MALDI-TOF MS); settings: compounds of the invention, Table 2; read-out: Inhibition of QPCTL: IC50
Description: as §1

[5] = test system: SIRPα signalling induced by A549 cells; assay: Assay B: SIRPα signalling assay using A549 cells; format: cell-based, human; settings: Homo sapiens, compounds of the invention, Table 4, read-out: Inhibition of SIRα signalling induced by A549 cells: IC50
Description: Two cell types are independently used: the Raji cell line (lymphoblastlike human cell line derived from B lymphocytes from a Burkitt's lymphoma patient in 1963) and A549 cells (adenocarcinomic human alveolar basal epithelial cells).
Test compounds were dissolved in 100% DMSO and serially diluted into a white 384-well microtiter cell culture plate (PerkinElmer #60076780 in case of Raji assay; PDL-coated plates Greiner #781945 in case of A549 assay). 5000 Raji cells (ATCC #CC86) or 5000 A549 cells (ATCC #CCL-185) in Assay Complete Cell Plating reagent 30 (DiscoverX 93-0563R30B) were added per well. The assay plate was incubated for 48 h at 37° C., 95% humidity and 5% CO2. 15000 reporter cells (Jurkat PathHunter SIRPα V1, DiscoverX #93-1135C19) were added to each well, and the plate was incubated for 5 h at 37° C., 95% humidity and 5% CO2. Bioassay reagent 1 of the PathHunter Bioassay detection kit (DiscoverX 93-0001) was added to each well of the plate using a multichannel pipette followed by a 15 min incubation at room temperature. Afterwards bioassay reagent 2 was added followed by 60 min incubation at room temperature (incubation in the dark).
as §2, with “Reader. Dose-response curves & IC50 data were calculated with 4-parameter sigmoidal dose response formula.” for “Reader.”

QPCT, sequence (Q16769 29-361): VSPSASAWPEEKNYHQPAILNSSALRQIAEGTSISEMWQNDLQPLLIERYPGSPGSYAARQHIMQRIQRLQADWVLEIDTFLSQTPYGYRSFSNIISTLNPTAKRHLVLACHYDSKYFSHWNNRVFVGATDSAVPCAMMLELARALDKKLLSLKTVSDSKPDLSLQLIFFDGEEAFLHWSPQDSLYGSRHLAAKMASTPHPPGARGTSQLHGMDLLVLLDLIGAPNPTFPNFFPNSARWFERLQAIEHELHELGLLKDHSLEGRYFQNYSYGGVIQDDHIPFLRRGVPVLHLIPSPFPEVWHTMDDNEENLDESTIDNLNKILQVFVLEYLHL
QPCTL, sequence (Q9NXS2 whole entry): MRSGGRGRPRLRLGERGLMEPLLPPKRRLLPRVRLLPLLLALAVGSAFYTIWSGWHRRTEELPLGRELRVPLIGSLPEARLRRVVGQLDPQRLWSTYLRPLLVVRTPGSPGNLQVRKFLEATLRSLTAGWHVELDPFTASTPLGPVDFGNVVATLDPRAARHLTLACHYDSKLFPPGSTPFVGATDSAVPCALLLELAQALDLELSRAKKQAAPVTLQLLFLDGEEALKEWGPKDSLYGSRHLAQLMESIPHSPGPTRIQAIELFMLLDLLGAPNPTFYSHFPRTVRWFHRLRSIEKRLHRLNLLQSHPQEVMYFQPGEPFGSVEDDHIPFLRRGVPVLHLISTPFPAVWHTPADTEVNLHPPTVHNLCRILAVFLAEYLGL

SMILES | Papp A→B ([1]; Caco-2, apical to basolateral) [×10⁻⁶ cm/s] | efflux ratio ([1]; Caco-2) | IC50 [2] [nM] | IC50 [3] [nM] | IC50 [4] [nM] | IC50 [5] [nM] | Papp A→B at 2 h ([1]; Caco-2, apical to basolateral) [×10⁻⁶ cm/s] | efflux ratio at 2 h ([1]; Caco-2)
Cn1cnnc1C1CCN(c2c(C#N)cccc2-c2cnc(F)c(F)c2)CC1 [compound 20] | 22 | 3 | 28 | 147 | 5 | 53 |  | 
Cn1cc2cc(-c3cccc(C#N)c3N3CCC(c4nncn4C)CC3)cnc2n1 [compound 22] | 0.2 | 50.6 | 3 | 87 | 1 | 114 |  | 
Cn1cnnc1C1CCN(c2c(C#N)cccc2-c2cnc3c(c2)NCCO3)CC1 [compound 24] | 1 | 34 | 56 | 368 | 14 | 177 |  | 
Cn1cnnc1C1CCN(c2c(C#N)cccc2-c2cnc3c(c2)OCO3)CC1 [compound 25] | 7.4 | 7.4 | 84 | 566 | 14 | 339 |  | 
Cn1cnnc1C1CCN(c2c(C#N)cccc2-c2cnc3n[nH]cc3c2)CC1 [compound 26] |  |  | 24 | 427 | 5 | 382 | 0.4 | 48.6
Cn1cnnc1C1CCN(c2c(C#N)cccc2-c2cnc3nc(-c4cccc(Cl)c4)ccn23)CC1 [compound 28] | 5.5 | 12.4 | 12 | 250 | 2 | 282 |  | 
Cn1cnnc1C1CCN(c2c(C#N)cccc2-c2cncc(-c3ncco3)c2)CC1 [compound 29] | 3.1 | 16.5 | 25 | 121 | 3 | 81 |  | 
Cn1ccnc1-c1cncc(-c2cccc(C#N)c2N2CCC(c3nncn3C)CC2)c1 [compound 30] | < 0.3 | > 32 | 3 | 135 | 1 | 124 |  | 
Cn1cnnc1C1CCN(c2c(C#N)cccc2-c2cnc(F)c(OC(F)(F)F)c2)CC1 [compound 31] | 39 | 2.2 | 71 | 244 | 9 | 135 |  | 
Cn1cnnc1C1CCN(c2c(C#N)cccc2-c2ccnnc2)CC1 [compound 32] | 0.3 | 28.1 | 6 | 158 | 1 | 69 |  | 
Cn1cnnc1C1CCN(c2c(C#N)cccc2-c2cnc3nc[nH]c3c2)CC1 [compound 33] | < 0.1 | > 27 | 6 | 501 | 1 | 210 |  | 
Cn1cnnc1C1CCN(c2c(C#N)cccc2-c2cnc(F)c(OCc3ccccc3)c2)CC1 [compound 35] | 24 | 2.4 | 12 | 51 | 2 | 18 |  | 
Cn1cnnc1C1CCN(c2c(C#N)cccc2-c2cnc(F)c(OCC3CC3)c2)CC1 [compound 36] | 34 | 2.4 | 2 | 19 | 1 | 10 |  | 
Cn1cnnc1C1CCN(c2c(C#N)cccc2-c2cncc(C3CCCCO3)c2)CC1 (stereo not drawn) [compound 39] | 10 | 5.1 | 29 | 133 | 5 | 18 |  | 
Cn1cnnc1C1CCN(c2c(C#N)cccc2-c2cnc3nnn(C)c3c2)CC1 [compound 40] | 0.1 | 100 | 4 | 214 | 1 | 109 |  | 
Cn1cnnc1C1CCN(c2c(C#N)cccc2-c2cnc(F)c(Cl)c2)CC1 [compound 42] | 36 | 2 | 24 | 105 | 4 | 72 |  | 
Cn1cnnc1C1CCN(c2c(C#N)cccc2-c2cnc3nsnc3c2)CC1 [compound 43] | 2.2 | 22.3 | 28 | 342 | 3 | 271 |  | 
COc1cc(F)ncc1-c1cccc(C#N)c1N1CCC(c2nncn2C)CC1 [compound 44] | 11 | 1.5 | 18 | 109 | 4 | 121 |  | 
Cn1nc2cc(-c3cccc(C#N)c3N3CCC(c4nncn4C)CC3)cnc2n1 [compound 45] | 0.8 | 31.6 | 26 | 140 | 4 | 173 |  | 
Cc1c(-c2cccc(C#N)c2N2CCC(c3nncn3C)CC2)cncc1-n1cccn1 [compound 46] | 6.8 | 2.5 | 13 | 97 | 2 | 71 |  | 
Cn1cnnc1C1CCN(c2c(C#N)cccc2-c2cnc(F)c(OC3CC3)c2)CC1 [compound 47] | 13 | 6 | 8 | 77 | 2 | 53 |  | 
COc1cc(-c2cccc(C#N)c2N2CCC(c3nncn3C)CC2)cnn1 [compound 48] | 1.1 | 21.8 | 22 | 446 | 7 | 674 |  | 
COc1cc(-c2cccc(C#N)c2N2CCC(c3nncn3C)CC2)cnc1F [compound 49] | 18 | 3.6 | 9 | 63 | 2 | 56 |  | 
Cn1cnnc1C1CCN(c2c(C#N)cccc2-c2cnc3nn(C(C)(C)C)cc3c2)CC1 [compound 50] | 0.5 | 75.5 | 1 | 21 | 1 | 33 |  | 
Cc1cc(C)n(-c2cncc(-c3cccc(C#N)c3N3CCC(c4nncn4C)CC3)c2)n1 [compound 51] | 3.4 | 12.9 | 8 | 148 | 2 | 52 |  | 
Cn1cnnc1C1(F)CCN(c2c(C#N)cccc2-c2ccnnc2)CC1 [compound 52] | 15 | 1.1 | 3 | 67 | 2 | 16 |  | 
COc1cc(-c2cccc(C#N)c2N2CCC(F)(c3nncn3C)CC2)cnc1F [compound 53] | 35 | 1.3 | 3 | 81 | 1 | 22 |  | 
Cn1cnnc1C1(F)CCN(c2c(C#N)cccc2-c2ccc(F)nc2)CC1 [compound 56] | 50 | 0.7 | 3 | 29 | 1 | 7 |  | 
Cn1cnnc1C1CCN(c2c(C#N)cccc2-c2cnn3ncccc23)CC1 [compound 57] | 3.9 | 11 | 11 | 442 | 5 | 244 |  | 
